Measured values reported in PubChem BioAssay AID330 (DTP/NCI, 2004).
Values joined by “and” are separate entries in the source; they are usually repeats but may differ in a detail not shown here. Identical values can stand only once. Toxic doses and inconclusive results are not listed. The calls were made as follows: active = survival T/C of 150% or more; inactive = T/C below 125% in these data.

System: P388 leukemia ip, CD2F1 mice, survival T/C
Assay: NCI In Vivo Anticancer Drug Screen. Data for tumor model P388 Leukemia (intraperitoneal) in CD2F1 (CDF1) mice
Conditions: endpoint: median survival time, higher = longer survival
Summary of the method: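 Mice carrying the transplanted tumor received test compound or vehicle. Survival was recorded in each group, and the value is the treated-group measurement divided by that of the vehicle-treated control group.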

[1] = dose: 25.0 mg/kg/injection, schedule: Q01DX009 (ip), vehicle: saline with Tween-80
[2] = dose: 25.0 mg/kg/injection, schedule: Q04DX003 (ip), vehicle: saline with Tween-80
[3] = dose: 50.0 mg/kg/injection, schedule: Q01DX009 (ip), vehicle: saline with Tween-80
[4] = dose: 50.0 mg/kg/injection, schedule: Q04DX003 (ip), vehicle: saline with Tween-80
[5] = dose: 100.0 mg/kg/injection, schedule: Q01DX009 (ip), vehicle: saline with Tween-80
[6] = dose: 100.0 mg/kg/injection, schedule: Q04DX003 (ip), vehicle: saline with Tween-80
[7] = dose: 60.0 mg/kg/injection, schedule: Q01DX005 (ip), vehicle: Klucel (hydroxypropylcellulose) (HPC)
[8] = dose: 120.0 mg/kg/injection, schedule: Q01DX005 (ip), vehicle: Klucel (hydroxypropylcellulose) (HPC)
[9] = dose: 240.0 mg/kg/injection, schedule: Q01DX005 (ip), vehicle: Klucel (hydroxypropylcellulose) (HPC)
[10] = dose: 50.0 mg/kg/injection, schedule: Q01DX009 (ip), vehicle: saline
[11] = dose: 100.0 mg/kg/injection, schedule: Q01DX009 (ip), vehicle: saline
[12] = dose: 200.0 mg/kg/injection, schedule: Q01DX009 (ip), vehicle: saline
[13] = dose: 50.0 mg/kg/injection, schedule: Q01DX005 (ip), vehicle: saline with Tween-80
[14] = dose: 100.0 mg/kg/injection, schedule: Q01DX005 (ip), vehicle: saline with Tween-80
[15] = dose: 200.0 mg/kg/injection, schedule: Q01DX005 (ip), vehicle: saline with Tween-80
[16] = dose: 50.0 mg/kg/injection, schedule: Q01DX005 (ip), vehicle: Klucel (hydroxypropylcellulose) (HPC)
[17] = dose: 100.0 mg/kg/injection, schedule: Q01DX005 (ip), vehicle: Klucel (hydroxypropylcellulose) (HPC)
[18] = dose: 6.25 mg/kg/injection, schedule: Q01DX009 (ip), vehicle: saline with Tween-80
[19] = dose: 12.5 mg/kg/injection, schedule: Q01DX009 (ip), vehicle: saline with Tween-80
[20] = dose: 50.0 mg/kg/injection, schedule: Q01DX009 (ip), vehicle: Klucel (hydroxypropylcellulose) (HPC)
[21] = dose: 100.0 mg/kg/injection, schedule: Q01DX009 (ip), vehicle: Klucel (hydroxypropylcellulose) (HPC)
[22] = dose: 200.0 mg/kg/injection, schedule: Q01DX009 (ip), vehicle: Klucel (hydroxypropylcellulose) (HPC)
[23] = dose: 60.0 mg/kg/injection, schedule: Q01DX005 (ip), vehicle: saline with Tween-80
[24] = dose: 120.0 mg/kg/injection, schedule: Q01DX005 (ip), vehicle: saline with Tween-80
[25] = dose: 240.0 mg/kg/injection, schedule: Q01DX005 (ip), vehicle: saline with Tween-80

Measured: T/C

CC(C)NCCCC(=O)O
inactive: dose: 25.0 mg/kg/injection, schedule: Q01DX009 (ip), vehicle: water 101 % of control | dose: 50.0 mg/kg/injection, schedule: Q01DX009 (ip), vehicle: water 99 % of control | dose: 100.0 mg/kg/injection, schedule: Q01DX009 (ip), vehicle: water 109 % of control | dose: 200.0 mg/kg/injection, schedule: Q01DX009 (ip), vehicle: water 96 % of control | dose: 400.0 mg/kg/injection, schedule: Q01DX009 (ip), vehicle: water 90 % of control

CCN(Cc1cc(Nc2ccnc3cc(Cl)ccc23)ccc1O)C(=O)N1CCN(C)CC1
inactive: dose: 100.0 mg/kg/injection, schedule: Q04DX002 (ip), vehicle: Klucel (hydroxypropylcellulose) (HPC) 100 % of control | dose: 200.0 mg/kg/injection, schedule: Q04DX002 (ip), vehicle: Klucel (hydroxypropylcellulose) (HPC) 96 % of control | dose: 400.0 mg/kg/injection, schedule: Q04DX002 (ip), vehicle: Klucel (hydroxypropylcellulose) (HPC) 96 % of control

CC(Oc1ccccc1)C(=O)N=c1scc(-c2ccc(Br)cc2)n1-c1cccc2ccccc12 (stereo unspecified)
inactive: dose: 6.25 mg/kg/injection, schedule: Q01DX009 (ip), vehicle: gum acacia 106 % of control | dose: 12.5 mg/kg/injection, schedule: Q01DX009 (ip), vehicle: gum acacia 106 % of control | dose: 25.0 mg/kg/injection, schedule: Q01DX009 (ip), vehicle: gum acacia 105 % of control | dose: 50.0 mg/kg/injection, schedule: Q01DX009 (ip), vehicle: gum acacia 101 % of control | dose: 100.0 mg/kg/injection, schedule: Q01DX009 (ip), vehicle: gum acacia 92 % of control | dose: 200.0 mg/kg/injection, schedule: Q01DX009 (ip), vehicle: gum acacia 98 % of control

ClCc1ccc(Cl)c(Cl)c1Cl
inactive: [1] 100 % of control | [2] 100 % of control | [3] 104 % of control | [4] 100 % of control | [5] 109 % of control | [6] 100 % of control

N#CC1CNC(N)NC1N (stereo unspecified)
inactive: [7] 99 % of control | [8] 91 % of control | [9] 90 % of control

CC1(C)C=C(C(Br)c2ccccc2)C(=O)c2ccccc21 (stereo unspecified)
inactive: dose: 25.0 mg/kg/injection, schedule: Q01DX009 (ip), vehicle: other 100 % of control | dose: 44.0 mg/kg/injection, schedule: Q01DX009 (ip), vehicle: other 112 % of control | dose: 50.0 mg/kg/injection, schedule: Q01DX009 (ip), vehicle: other 118 % of control | dose: 150.0 mg/kg/injection, schedule: Q01DX009 (ip), vehicle: other 121 % of control | dose: 200.0 mg/kg/injection, schedule: Q01DX009 (ip), vehicle: other 116 % of control

N=C1C=C(N)CS1
inactive: [10] 87 % of control | [11] 86 % of control | [12] 88 % of control

COC(=O)C1=NNc2ccccc2C(OC(C)=O)C1C (stereo unspecified)
inactive: dose: 100.0 mg/kg/injection, schedule: Q01DX001 (ip), vehicle: saline with Tween-80 90 % of control | dose: 200.0 mg/kg/injection, schedule: Q01DX001 (ip), vehicle: saline with Tween-80 96 % of control | dose: 400.0 mg/kg/injection, schedule: Q01DX001 (ip), vehicle: saline with Tween-80 97 % of control

Cc1ccc2nc3c4ccccc4c4ccccc4c3nc2c1C
inactive: [13] 94 % of control | [14] 86 % of control | [15] 89 % of control

Clc1ccc(-c2csc3sc4ccccc4[n+]23)cc1
inactive: [13] 111 % of control | [14] 118 % of control | [15] 113 % of control

Cn1c2c(c(=O)c3cc(O)ccc31)CC(O)C(C)(C)O2 (stereo unspecified)
inactive: [16] 102 % of control | [17] 94 % of control | dose: 200.0 mg/kg/injection, schedule: Q01DX005 (ip), vehicle: Klucel (hydroxypropylcellulose) (HPC) 86 % of control

COc1cc(C)nc2ccc(Cc3ccc4nc(C)cc(OC)c4c3)cc12
inactive: [2] 94 % of control | [4] 91 % of control

CC(C)(C)C1=CC(=O)C(C#N)=C(C#N)C1=O
inactive: [18] 95 % of control | [19] 109 % of control | [1] 100 % of control

C[C@@H](N)C(=O)NC(CO)CC(N)C=O (stereo partly specified)
inactive: dose: 50.0 mg/kg/injection, schedule: Q04DX002 (ip), vehicle: saline 105 % of control and 115 % of control | dose: 100.0 mg/kg/injection, schedule: Q04DX002 (ip), vehicle: saline 111 % of control and 120 % of control | dose: 200.0 mg/kg/injection, schedule: Q04DX002 (ip), vehicle: saline 109 % of control and 121 % of control | dose: 400.0 mg/kg/injection, schedule: Q04DX002 (ip), vehicle: saline 122 % of control

CCOc1ccccc1NC(=S)Nc1ccccc1C(F)(F)F
inactive: [20] 109 % of control | [21] 100 % of control | [22] 100 % of control

Cc1cc2c(cc1C)NC1=C(N2)OC(c2c3ccccc3cc3ccccc23)C1=O (stereo unspecified)
inactive: [7] 92 % of control | [8] 88 % of control | [9] 90 % of control

Cc1ccc(N=C(N)N/N=C/c2ccc3c(c2)Cc2ccccc2-3)cc1
inactive: dose: 25.0 mg/kg/injection, schedule: Q04DX002 (ip), vehicle: saline with Tween-80 106 % of control | dose: 50.0 mg/kg/injection, schedule: Q04DX002 (ip), vehicle: saline with Tween-80 107 % of control

S=c1[nH]nc(-c2ccccc2)n1C1CCCCC1
inactive: [4] 97 % of control | [6] 100 % of control | dose: 200.0 mg/kg/injection, schedule: Q04DX003 (ip), vehicle: saline with Tween-80 93 % of control

O=C1C(Cl)=C(Nc2cc(Cl)ccc2Cl)C(=O)c2ccccc21
inactive: [23] 98 % of control | [24] 102 % of control | [25] 101 % of control

CCCNc1nc(C)nc2[nH]cc(C)c12
inactive: [16] 100 % of control | [17] 102 % of control

Cc1c(-c2nnc(N)o2)cc([N+](=O)[O-])cc1[N+](=O)[O-]
inactive: [23] 98 % of control | [24] 100 % of control | [25] 99 % of control

CN(C(=O)Nc1cccc2c(NC(=O)N(C)C3CCCCC3)cccc12)C1CCCCC1
inactive: [23] 93 % of control | [24] 87 % of control | [25] 90 % of control

COC(C(OC)N1CCOCC1)N1CCOCC1 (stereo unspecified)
inactive: [3] 100 % of control | [5] 104 % of control | dose: 200.0 mg/kg/injection, schedule: Q01DX009 (ip), vehicle: saline with Tween-80 113 % of control

COC1=C(OC)C(=O)C(SCCCCCCC2CCCCC2)=CC1=O
inactive: dose: 16.0 mg/kg/injection, schedule: Q01DX009 (ip), vehicle: Klucel (hydroxypropylcellulose) (HPC) 96 % of control | dose: 32.0 mg/kg/injection, schedule: Q01DX009 (ip), vehicle: Klucel (hydroxypropylcellulose) (HPC) 92 % of control

Cc1cc(NC(=S)Nc2ccccc2)c(NC(=S)Nc2ccccc2)cc1C
inactive: dose: 25.0 mg/kg/injection, schedule: Q01DX009 (ip), vehicle: Klucel (hydroxypropylcellulose) (HPC) 97 % of control | [20] 100 % of control | [21] 98 % of control | [22] 92 % of control | dose: 400.0 mg/kg/injection, schedule: Q01DX009 (ip), vehicle: Klucel (hydroxypropylcellulose) (HPC) 106 % of control

O=c1oc2ccc(Cl)cc2c2c1OC(c1ccccc1)CN2 (stereo unspecified)
inactive: dose: 3.13 mg/kg/injection, schedule: Q01DX009 (ip), vehicle: saline with Tween-80 110 % of control | [18] 110 % of control | [19] 103 % of control | [1] 103 % of control

COc1c(Cl)cccc1N=Cc1ccc(C=Nc2cccc(Cl)c2OC)cc1
inactive: [10] 97 % of control | [11] 90 % of control | [12] 89 % of control
